Reference: patent US5126336A, “Antibiotic C-3 catechol-substituted cephalosporin compounds, compositions and method of use thereof” (Bristol-Myers Squibb Company, priority 1990, dated 1992)
Values after ≈ are worked out from the molar mass of the structure shown.

Legend:
Type in all cases: cell-based
B. subtilis PCI 219 = experiment: MIC, agar dilution; settings: Bacillus subtilis, PCI219, Mueller-Hinton agar pH 7.2, 32° C., 18 hr, 10^6 cells/ml
Description: (§1) Minimum inhibitory concentrations (MICs) of the present series of cephalosporins were determined against 32 strains of test organisms by two-fold serial agar dilution method in Mueller-Hinton agar. Geometric means of MICs were calculated against six groups of the test organisms which are classified as follows and summarized in Table 1.
(§2) Medium; MuellerHinton agar (pH = 7.2)
(§3) Incubation temperature: 32° C., 18 hr
(§4) Inoculum size; 10^6 cells/ml

C. freundii GN 7391 = experiment: MIC, agar dilution; settings: Citrobacter freundii, GN7391, Mueller-Hinton agar pH 7.2, 32° C., 18 hr, 10^6 cells/ml
Description: as §1, §2, §3, §4

C. terrigena IFO 12685 = experiment: MIC, agar dilution; settings: Mueller-Hinton agar pH 7.2, 32° C., 18 hr, 10^6 cells/ml
Description: as §1, §2, §3, §4

E. cloacae IPM-12 = experiment: MIC, agar dilution; settings: Enterobacter cloacae, IPM12, Mueller-Hinton agar pH 7.2, 32° C., 18 hr, 10^6 cells/ml
Description: as §1, §2, §3, §4

E. coli 255 = experiment: MIC, agar dilution; settings: Escherichia coli, Mueller-Hinton agar pH 7.2, 32° C., 18 hr, 10^6 cells/ml
Description: as §1, §2, §3, §4

E. faecalis A9808 = experiment: MIC, agar dilution; settings: Enterococcus faecalis, Mueller-Hinton agar pH 7.2, 32° C., 18 hr, 10^6 cells/ml
Description: as §1, §2, §3, §4

E. faecium A24817 = experiment: MIC, agar dilution; settings: Enterococcus faecium, Mueller-Hinton agar pH 7.2, 32° C., 18 hr, 10^6 cells/ml
Description: as §1, §2, §3, §4

K. pneumoniae PCI 602 = experiment: MIC, agar dilution; settings: Klebsiella pneumoniae, PCI602, Mueller-Hinton agar pH 7.2, 32° C., 18 hr, 10^6 cells/ml
Description: as §1, §2, §3, §4

M. luteus 1001 = experiment: MIC, agar dilution; settings: Micrococcus luteus, Mueller-Hinton agar pH 7.2, 32° C., 18 hr, 10^6 cells/ml
Description: as §1, §2, §3, §4

M. morgani 1510/9 = experiment: MIC, agar dilution; settings: Mueller-Hinton agar pH 7.2, 32° C., 18 hr, 10^6 cells/ml
Description: as §1, §2, §3, §4

M. morgani 1510 = experiment: MIC, agar dilution; settings: Mueller-Hinton agar pH 7.2, 32° C., 18 hr, 10^6 cells/ml
Description: as §1, §2, §3, §4

P. aeruginosa A20599 = experiment: MIC, agar dilution; settings: Pseudomonas aeruginosa, Mueller-Hinton agar pH 7.2, 32° C., 18 hr, 10^6 cells/ml
Description: as §1, §2, §3, §4

P. aeruginosa IPM-8 = experiment: MIC, agar dilution; settings: Pseudomonas aeruginosa, IPM8, Mueller-Hinton agar pH 7.2, 32° C., 18 hr, 10^6 cells/ml
Description: as §1, §2, §3, §4

P. aeruginosa IPM-9 = experiment: MIC, agar dilution; settings: Pseudomonas aeruginosa, IPM9, Mueller-Hinton agar pH 7.2, 32° C., 18 hr, 10^6 cells/ml
Description: as §1, §2, §3, §4

P. aeruginosa KKA 19 = experiment: MIC, agar dilution; settings: Pseudomonas aeruginosa, KKA19, Mueller-Hinton agar pH 7.2, 32° C., 18 hr, 10^6 cells/ml
Description: as §1, §2, §3, §4

P. cepacia A21213 = experiment: MIC, agar dilution; settings: Burkholderia cepacia, Mueller-Hinton agar pH 7.2, 32° C., 18 hr, 10^6 cells/ml
Description: as §1, §2, §3, §4

P. cepacia No. 651 = experiment: MIC, agar dilution; settings: Burkholderia cepacia, Mueller-Hinton agar pH 7.2, 32° C., 18 hr, 10^6 cells/ml
Description: as §1, §2, §3, §4

P. mirabilis IFO-2849 = experiment: MIC, agar dilution; settings: Proteus mirabilis, IFO2849, Mueller-Hinton agar pH 7.2, 32° C., 18 hr, 10^6 cells/ml
Description: as §1, §2, §3, §4

P. rettgeri IPM-14 = experiment: MIC, agar dilution; settings: Providencia rettgeri, IPM14, Mueller-Hinton agar pH 7.2, 32° C., 18 hr, 10^6 cells/ml
Description: as §1, §2, §3, §4

P. vulgaris IPM-13 = experiment: MIC, agar dilution; settings: Proteus vulgaris, IPM13, Mueller-Hinton agar pH 7.2, 32° C., 18 hr, 10^6 cells/ml
Description: as §1, §2, §3, §4

S. aureus 209P = experiment: MIC, agar dilution; settings: Staphylococcus aureus; S. aureus 209P; Mueller-Hinton agar pH 7.2; 32° C., 18 hr; 10^6 cells/ml; read-out: MIC
Description: as §1, §2, §3, §4

S. aureus 4-1015 (MRSA) = experiment: MIC, agar dilution; settings: Staphylococcus aureus, Mueller-Hinton agar pH 7.2, 32° C., 18 hr, 10^6 cells/ml
Description: as §1, §2, §3, §4

S. aureus IPM-24 (MRSA) = experiment: MIC, agar dilution; settings: Staphylococcus aureus, Mueller-Hinton agar pH 7.2, 32° C., 18 hr, 10^6 cells/ml
Description: as §1, §2, §3, §4

S. epidermidis 11-1230 = experiment: MIC, agar dilution; settings: Staphylococcus epidermidis, 111230, Mueller-Hinton agar pH 7.2, 32° C., 18 hr, 10^6 cells/ml
Description: as §1, §2, §3, §4

S. marcescens IPM-15 = experiment: MIC, agar dilution; settings: Serratia marcescens, IPM15, Mueller-Hinton agar pH 7.2, 32° C., 18 hr, 10^6 cells/ml
Description: as §1, §2, §3, §4

S. marcescens IPM-16 = experiment: MIC, agar dilution; settings: Serratia marcescens, IPM16, Mueller-Hinton agar pH 7.2, 32° C., 18 hr, 10^6 cells/ml
Description: as §1, §2, §3, §4

X. maltophilia GN 12873 = experiment: MIC, agar dilution; settings: Stenotrophomonas maltophilia, GN12873, Mueller-Hinton agar pH 7.2, 32° C., 18 hr, 10^6 cells/ml
Description: as §1, §2, §3, §4

X. maltophilia No. 661 = experiment: MIC, agar dilution; settings: Stenotrophomonas maltophilia, Mueller-Hinton agar pH 7.2, 32° C., 18 hr, 10^6 cells/ml
Description: as §1, §2, §3, §4

E. coli Juhl A15119 = experiment: MIC, agar dilution; settings: Escherichia coli, JUHLA15119; E. coli Juhl A15119; Mueller-Hinton agar pH 7.2; 32° C., 18 hr; 10^6 cells/ml; read-out: MIC
Description: as §1
(§5) In vivo antibacterial activity was determined against three bacterial infections (S. aureus Smith, E. coli Juhl and P. aeruginosa A9843A) by intramuscular administration to mice just after the bacterial challenge. PD50 values are summarized in Table 3 in comparsion with the MIC values against the corresponding organisms.
as §2, §3, §4

P. aeruginosa A9843A = experiment: MIC, agar dilution; settings: Pseudomonas aeruginosa, A9843A, 18 h, pH 7.2
Description: as §1, §5, §2, §3, §4

S. aureus Smith = experiment: MIC, agar dilution; settings: Staphylococcus aureus; S. aureus Smith; Mueller-Hinton agar pH 7.2; 32° C., 18 hr; 10^6 cells/ml; read-out: MIC
Description: as §1, §5, §2, §3, §4

[1] = tested on: Gp-Ia: Penicillin(PC)-sensitive S. aureus (5 strains); experiment: MIC, two-fold serial agar dilution, Gp-Ia; settings: Staphylococcus aureus, Mueller-Hinton agar, read-out: Geometric mean of MIC
Description: as §1
Gp-Ia Penicillin(PC)-sensitive S. aureus (5 strains).

[2] = tested on: Gp-Ib: Penicillin(PC)-resistant S. aureus (5); experiment: MIC, two-fold serial agar dilution, Gp-Ib; settings: Staphylococcus aureus, 5 strains, Mueller-Hinton agar, read-out: Geometric mean of MIC
Description: as §1
Gp-Ib Penicillin(PC)-resistant S. aureus (5).

[3] = tested on: Gn-Ia: Cephalothin(CET)-sensitive E. coli (2), Kl. pneumoniae (1) and Pr. mirabilis (2); experiment: MIC, two-fold serial agar dilution, Gn-Ia; settings: 5 strains, Mueller-Hinton agar, read-out: Geometric mean of MIC
Description: as §1
Gn-Ia Cephalothin(CET)-sensitive E. coli (2), Kl.
pneumoniae (1) and Pr. mirabilis (2).

[4] = tested on: Gn-Ib: Cephalothin(CET)-resistant E. coli (3) and Kl. pneumoniae (2); experiment: MIC, two-fold serial agar dilution, Gn-Ib; settings: Escherichia coli, read-out: Geometric mean of MIC, Gn-Ib, 5 strains; Mueller-Hinton agar
Description: as §1
Gn-Ib Cephalothin(CET)-resistant E. coli (3) and Kl.

[5] = tested on: Gn-II: M.morganii (1), Ent. cloacae (2) and Ser. marcescens (2); experiment: MIC, two-fold serial agar dilution, Gn-II; settings: Gn-II, 5 strains; Mueller-Hinton agar; read-out: Geometric mean of MIC
Description: as §1
Gn-II M.morganii (1), Ent. cloacae (2) and Ser.

[6] = tested on: Gn-III: Ps. aeruginosa (7); experiment: MIC, two-fold serial agar dilution, Gn-III; settings: Pseudomonas aeruginosa, Gn-III, 7 strains; Mueller-Hinton agar; read-out: Geometric mean of MIC
Description: as §1
Gn-III Ps. aeruginosa (7).

Nc1nc(/C(=N/O)C(=O)NC2C(=O)N3C(C(=O)[O-])=C(/C=C/C[n+]4cc5cc(O)c(O)cc5cn4)CS[C@H]23)cs1 (stereo partly shown) [Ik, 7-[(Z)-2-(2-Aminothiazol-4-yl)-2-hydroxyimino-acetamido]-3-[(E)-3-(6,7-dihydroxyphthalazin-2-io)-1-propen--1-yl]-3-cephem-4-carboxylate]
MIC (B. subtilis PCI 219): 0.4 µg/mL (≈ 0.702 µM)
MIC (C. freundii GN 7391): > 100 µg/mL
MIC (C. terrigena IFO 12685): 0.8 µg/mL (≈ 1.4 µM)
MIC (E. cloacae IPM-12): > 100 µg/mL
MIC (E. coli 255): 0.2 µg/mL (≈ 0.351 µM)
MIC (E. faecalis A9808): 6.3 µg/mL (≈ 11.1 µM)
MIC (E. faecium A24817): 50 µg/mL (≈ 87.8 µM)
MIC (K. pneumoniae PCI 602): 0.05 µg/mL (≈ 0.0878 µM)
MIC (M. luteus 1001): 0.4 µg/mL (≈ 0.702 µM)
MIC (M. morgani 1510/9): 0.1 µg/mL (≈ 0.176 µM)
MIC (M. morgani 1510): 6.3 µg/mL (≈ 11.1 µM)
MIC (P. aeruginosa A20599): > 100 µg/mL
MIC (P. aeruginosa IPM-8): > 100 µg/mL
MIC (P. aeruginosa IPM-9): > 100 µg/mL
MIC (P. aeruginosa KKA 19): > 100 µg/mL
MIC (P. cepacia A21213): > 100 µg/mL
MIC (P. cepacia No. 651): 100 µg/mL (≈ 176 µM)
MIC (P. mirabilis IFO-2849): 0.2 µg/mL (≈ 0.351 µM)
MIC (P. rettgeri IPM-14): 1.6 µg/mL (≈ 2.81 µM)
MIC (P. vulgaris IPM-13): > 100 µg/mL
MIC (S. aureus 209P): 0.8 µg/mL (≈ 1.4 µM)
MIC (S. aureus 4-1015 (MRSA)): 3.1 µg/mL (≈ 5.44 µM)
MIC (S. aureus IPM-24 (MRSA)): 12.5 µg/mL (≈ 21.9 µM)
MIC (S. epidermidis 11-1230): 1.6 µg/mL (≈ 2.81 µM)
MIC (S. marcescens IPM-15): > 100 µg/mL
MIC (S. marcescens IPM-16): > 100 µg/mL
MIC (X. maltophilia GN 12873): > 100 µg/mL
MIC (X. maltophilia No. 661): > 100 µg/mL
MIC (E. coli Juhl A15119): 0.4 µg/mL (≈ 0.702 µM)
MIC (P. aeruginosa A9843A): > 100 µg/mL
MIC (S. aureus Smith): 0.8 µg/mL (≈ 1.4 µM)

C[N+]1(C/C=C/C2=C(C(=O)[O-])N3C(=O)C(NC(=O)/C(=N\OCC(=O)O)c4csc(N)n4)C3SC2)Cc2cc(O)c(O)cc2C1 (stereo not shown) [Ih, 7-[(Z)-2-(2-Aminothiazol-4-yl)-2-carboxymethoxyimino-acetamido]-3-[3-(E)-(5,6-hydroxy-2-methyl-2-isoindolinio)-1-propen-1-yl]-3-cephem-4-carboxylate]
MIC [1]: 7.2 µg/mL (≈ 11.4 µM)
MIC [2]: 12.5 µg/mL (≈ 19.8 µM)
MIC [3]: 0.2 µg/mL (≈ 0.317 µM)
MIC [4]: 0.4 µg/mL (≈ 0.634 µM)
MIC [5]: 1.1 µg/mL (≈ 1.74 µM)
MIC [6]: 0.49 µg/mL (≈ 0.777 µM)
